Patent US20260286309A1, “DIFFERENTIATION OF IPSCS IN BIOREACTORS” (REPAIRON GMBH, priority 2022, published 2026)

Legend:
iPSCs (TC1133) [1] = assay: Cardiac differentiation of iPSCs in suspension (ambr15, 2-factor protocol CHIR/IWP4); type: cell-based, human
Experimental: The cardiac differentiation potential of iPSCs after long-term culture was assessed by direct differentiation into iPSC-CMs using a published 2-factor protocol (Chen et al., 2015). iPSC aggregates were differentiated in the ambr15 system and the medium was exchanged manually. Briefly, the basal medium on day 0-5 consisted of RPMI 1640+2% B-27 supplement without insulin. From day 6 onwards the basal medium was RPMI 1640+2% b-27 supplement. To initiate mesodermal differentiation, CHIR was added in varying concentrations on day 1. 5 μM IWP4 was added on day 2 and 3 or day 3 and 4 to initiate cardiac differentiation. A main goal of this project was to ensure that the cardiac differentiation potential remains in iPSCs that are cultivated with the developed expansion strategy. The cardiac differentiation potential was assessed by using a published protocol for the directed cardiac differentiation of PSCs in suspension culture (Chen et al., 2015). iPSCs in suspension were successfully differentiated into iPSC-CMs during early passages (Cultivation Optimization Run 12) and during late passages (Cultivation Optimization Run 13) of long-term cultures. Thereby, proof of concept was shown that iPSCs generated with the developed expansion strategy can be used to produce iPSC-CMs in suspension culture.

iPSCs (TC1133) [2] = assay: Y27632 pretreatment before automatic passaging of iPSC aggregates in ambr15 suspension culture (Cultivation Optimization Run 08); type: cell-based, human
Text: The nucleocounter NC-200 offers fast and reliable assessment of cell number and viability. Furthermore, it is GMP-compliant and is used during the production stage. Single cell suspensions may be directly measured with the NC-200, whereas suspensions with high content of cell clumps should be treated according to special protocols, supplied with the NC-200. These protocols include cell lysis to ensure distinguishability of single nuclei. However, large iPSC aggregates of about 70-250 μm, which were obtained in the suspension culture, could not be sufficiently lysed with the provided protocols within a reasonable time. Therefore, iPSC aggregates were digested using TrypLE before measurement with the NC-200. […] This suspension was then used for measurement with the NC-200 using the “Viability and Cell Count—A100 and B Assay” intended for small cell aggregates.
The pluripotency state of iPSCs was assessed by analyzing the pluripotency-related markers NANOG, TRA-1-60, and OCT4 using flow cytometry. iPSC aggregates were digested with TrypLE to achieve a near singe cell suspension. Subsequently the cells were fixed by adding Histofix to the cell suspension in a 1:1 ratio (resulting in 2% PFA). For analysis, the cells were stained with fluorochrome-conjugated antibodies. Dead cells were excluded from the analysis with Hoechst staining. Accordingly, the expression of a-Actinin and cTNT was analyzed to assess the success of cardiac differentiation.
The aggregate size was analyzed using a Cellavista device. Culture samples were transferred into a 24-well plate prepared with PBS (—Ca2+/—Mg2+) and measured with the Cellavista. Images were processed by the Cellavista software by applying a threshold to discriminate aggregates from background. The software FIJI (Schindelin et al., 2012) was subsequently used to analyze aggregate size.
To increase the degree of reaggregation, pretreatment with ROCK inhibitor Y27632 was tested. Pretreatment of iPSCs with Y27632 has been reported for other procedures that require cell singularization and are stressful for iPSCs (Chatterjee et al., 2011). […]

| Structure (SMILES) | optimal concentration for successful cardiac differentiation (iPSCs (TC1133) [1]; iPSCs of earlier passages (passage 0)) | optimal concentration for successful cardiac differentiation (iPSCs (TC1133) [1]; iPSCs of later passages (passage 8)) | expression of NANOG (iPSCs (TC1133) [2]; day 3, passage 1, flow cytometry, Y27632 pretreatment) | expansion rate (iPSCs (TC1133) [2]; day 5, passage 1, 10 μM Y27632 pretreatment, Versene passaging) | aggregate size (mean) (iPSCs (TC1133) [2]; passage 1, Y27632 pretreatment) |
| --- | --- | --- | --- | --- | --- |
| Cc1c[nH]c(-c2cnc(NCCNc3ccc(C#N)cn3)nc2-c2ccc(Cl)cc2Cl)n1 [CHIR, CHIR99021] | 6 µM | 18 µM | – | – | – |
| C[C@@H](N)[C@H]1CC[C@H](C(=O)Nc2ccncc2)CC1 [Y27632] | – | – | 93% | 9 fold | 162 μm |
